These are literature values, as cited in US8227599B2, “Adsorbents comprising anthraquinone dye-ligends for the separation of biological materials” (BASF SE, priority 2005, dated 2012).

In the data set the test system is Aspergillus terreus NADP-glutamate Dehydrogenase.

Take `Nc1c(S(=O)(=O)[O-])cc(Nc2ccc(Nc3nc(Cl)nc(Nc4ccccc4S(=O)(=O)[O-])n3)c(S(=O)(=O)[O-])c2)c2c1C(=O)c1ccccc1C2=O.[Na+].[Na+].[Na+]` [Cibacron Blue 3GA]: the “Binding of NADP-GDH to the dye” value is “does not bind”.
